The values below come from paper PMC7708056 (2020).

Test [1] relates to 18GAAA-D1 (NAD+ riboswitch domain 1, WT) (RNA, riboswitch) GGCUUCAACAACCCCGUAGGUGGGGACGAAAGUCAGCGCACCUACUGGAGCC
Briefly: ITC. To be noted: 50 mM NaCl, 10 mM MgCl2; for Kd: 50 mM HEPES pH 7.0, 25 °C (Figure S7 legend: 20 °C), apparent.

For test [2], the system named is 18GAAA-D1 A11U (RNA, riboswitch) GGCUUCAACAUCCCCGUAGGUGGGGACGAAAGUCAGCGCACCUACUGGAGCC
Briefly: ITC. To be noted: 50 mM NaCl, 10 mM MgCl2; 50 mM HEPES pH 7.0, 25 °C (Figure S7 legend: 20 °C), apparent.

The test system of test [3] is 18GAAA-D1 C6U/G47A (RNA, riboswitch) GGCUUUAACAACCCCGUAGGUGGGGACGAAAGUCAGCGCACCUACUAGAGCC
Briefly: ITC. To be noted: 50 mM NaCl, 10 mM MgCl2; 50 mM HEPES pH 7.0, 25 °C; 2 mM ligand stock titrated into 0.1 mM RNA.

Test [4] has as its system 18GAAA-D1 C6G/G47C (RNA, riboswitch) GGCUUGAACAACCCCGUAGGUGGGGACGAAAGUCAGCGCACCUACUCGAGCC
Briefly: ITC. To be noted: 50 mM NaCl, 10 mM MgCl2; 50 mM HEPES pH 7.0, 25 °C; 2 mM ligand stock titrated into 0.1 mM RNA.

Test [5] concerns 18GAAA-D1 G23A/C37U (RNA, riboswitch) GGCUUCAACAACCCCGUAGGUGAGGACGAAAGUCAGUGCACCUACUGGAGCC
The experiment in a line: ITC. To be noted: 50 mM NaCl, 10 mM MgCl2; 50 mM HEPES pH 7.0, 25 °C; 2 mM ligand stock titrated into 0.1 mM RNA.

The subject of test [6] is 18GAAA-D1 C13U/C14U/G36A/G38A (RNA, riboswitch) GGCUUCAACAACUUCGUAGGUGGGGACGAAAGUCAACACACCUACUGGAGCC
The experiment in a line: ITC. To be noted: 50 mM NaCl, 10 mM MgCl2; 50 mM HEPES pH 7.0, 25 °C; 2 mM ligand stock titrated into 0.1 mM RNA.

The test system of test [7] is 18GAAA-D1 C14G/G36C (RNA, riboswitch) GGCUUCAACAACCGCGUAGGUGGGGACGAAAGUCACCGCACCUACUGGAGCC
The experiment in a line: ITC. As to conditions: 50 mM NaCl, 10 mM MgCl2; 50 mM HEPES pH 7.0, 25 °C; 2 mM ligand stock titrated into 0.1 mM RNA.

Test [8] deals with 18GAAA-D1 C13G/G38C (RNA, riboswitch) GGCUUCAACAACGCCGUAGGUGGGGACGAAAGUCAGCCCACCUACUGGAGCC
Briefly: ITC. To be noted: 50 mM NaCl, 10 mM MgCl2; 50 mM HEPES pH 7.0, 25 °C; 2 mM ligand stock titrated into 0.1 mM RNA.

The subject of test [9] is 18GAAA-D1 A8U (RNA, riboswitch) GGCUUCAUCAACCCCGUAGGUGGGGACGAAAGUCAGCGCACCUACUGGAGCC
The experiment in a line: ITC. To be noted: 50 mM NaCl, 10 mM MgCl2; 50 mM HEPES pH 7.0, 25 °C; 2 mM ligand stock titrated into 0.1 mM RNA.

Test [10] has as its system 18GAAA-D1 A8G (RNA, riboswitch) GGCUUCAGCAACCCCGUAGGUGGGGACGAAAGUCAGCGCACCUACUGGAGCC
The experiment in a line: ITC. As to conditions: 50 mM NaCl, 10 mM MgCl2; 50 mM HEPES pH 7.0, 25 °C; 2 mM ligand stock titrated into 0.1 mM RNA.

Test [11] relates to 18GAAA-D1 A10G (RNA, riboswitch) GGCUUCAACGACCCCGUAGGUGGGGACGAAAGUCAGCGCACCUACUGGAGCC
Briefly: ITC. As to conditions: 50 mM NaCl, 10 mM MgCl2; 50 mM HEPES pH 7.0, 25 °C; 2 mM ligand stock titrated into 0.1 mM RNA.

Test [12] has as its system 18GAAA-D1 A10C (RNA, riboswitch) GGCUUCAACCACCCCGUAGGUGGGGACGAAAGUCAGCGCACCUACUGGAGCC
The experiment in a line: ITC. To be noted: 50 mM NaCl, 10 mM MgCl2; 50 mM HEPES pH 7.0, 25 °C; 2 mM ligand stock titrated into 0.1 mM RNA.

In test [13] the test system is 18GAAA-D1 A35C (RNA, riboswitch) GGCUUCAACAACCCCGUAGGUGGGGACGAAAGUCCGCGCACCUACUGGAGCC
Briefly: ITC. As to conditions: 50 mM NaCl, 10 mM MgCl2; 50 mM HEPES pH 7.0, 25 °C; 2 mM ligand stock titrated into 0.1 mM RNA.

Test [14] deals with 18GAAA-D1 G36C (RNA, riboswitch) GGCUUCAACAACCCCGUAGGUGGGGACGAAAGUCACCGCACCUACUGGAGCC
The experiment in a line: ITC. To be noted: 50 mM NaCl, 10 mM MgCl2; 50 mM HEPES pH 7.0, 25 °C; 2 mM ligand stock titrated into 0.1 mM RNA.

Test [15] deals with 18GAAA-D1 G38C (RNA, riboswitch) GGCUUCAACAACCCCGUAGGUGGGGACGAAAGUCAGCCCACCUACUGGAGCC
The experiment in a line: ITC. As to conditions: 50 mM NaCl, 10 mM MgCl2; 50 mM HEPES pH 7.0, 25 °C; 2 mM ligand stock titrated into 0.1 mM RNA.

For test [16], the system named is 18GAAA-D1 G36C/G38C (RNA, riboswitch) GGCUUCAACAACCCCGUAGGUGGGGACGAAAGUCACCCCACCUACUGGAGCC
The experiment in a line: ITC. To be noted: 50 mM NaCl, 10 mM MgCl2; 50 mM HEPES pH 7.0, 25 °C; 2 mM ligand stock titrated into 0.1 mM RNA.

Test [17] has as its system G36A/G38A/A11Ap domain 1 (RNA, riboswitch, 2-aminopurine at 11) GGCUUCAACAACCCCGUAGGUGGGGACGAAAGUCAACACACCUACUGGAGCC
The experiment in a line: 2-aminopurine fluorescence.

Test [18] has as its system C13U/C14U/G36A/G38A domain 1, Ap variant (RNA, riboswitch, 2-aminopurine (position not given)) GGCUUCAACAACUUCGUAGGUGGGGACGAAAGUCAACACACCUACUGGAGCC
The experiment in a line: 2-aminopurine fluorescence.

The subject of test [19] is 832GAAA-D2 (NAD+ riboswitch domain 2) (RNA, riboswitch) GGUUUCAACAUCCCCGUUCGGCGCUCGAAAGAGGUGGCCGGACUGAAGCC
Briefly: X-ray crystallography, 2.1 Å. To be noted: Mg2+.

For test [20], the system named is 17delU1A-D1 (NAD+ riboswitch domain 1) (RNA, riboswitch) GGCGCAACAUCCCCGCCGGUUGGGCGCAUUGCACUCCGCGCAGUGAACCGGCUGCGCC
Briefly: X-ray crystallography, 2.80 Å. As to conditions: Mg2+; co-crystallised with U1A protein.

In test [21] the test system is A11Ap domain 1 (RNA, riboswitch, 2-aminopurine at 11) GGCUUCAACAACCCCGUAGGUGGGGACGAAAGUCAGCGCACCUACUGGAGCC
The experiment in a line: 2-aminopurine fluorescence, real time. To be noted: 100 mM KCl, 50 mM MgCl2; 50 mM KMOPS pH 7.5, 20 °C, 0.5 μM RNA, 0.3 mM ligand.

Test [22] shares this test system. The experiment in a line: 2-aminopurine fluorescence titration. As to conditions: 100 mM KCl, 50 mM MgCl2; 50 mM KMOPS pH 7.5, 20 °C, 0.5 μM RNA, apparent.
Test [23] relates to U11Ap domain 2 (RNA, riboswitch, 2-aminopurine at 11) GGUUUCAACAUCCCCGUUCGGCGCUCGAAAGAGGUGGCCGGACUGAAGCC
Briefly: 2-aminopurine fluorescence titration. To be noted: 100 mM KCl, 50 mM MgCl2; 50 mM KMOPS pH 7.5, 20 °C, 0.5 μM RNA, apparent.

On to `NC(=O)c1ccc[n+]([C@@H]2O[C@H](COP(=O)(O)OP(=O)(O)OC[C@H]3O[C@@H](n4cnc5c(N)ncnc54)[C@H](O)[C@@H]3O)[C@@H](O)[C@H]2O)c1`, for which the Kd turned out to be 127 ± 9.5 µM in test [1] and 111 ± 24.6 µM in [2]. For the same compound, the binding result in [3], in test [4], in [5], in test [6], in test [7] and in test [8] was “no” in each case. Also, the binding result in test [9], in test [10], in test [11], in test [12], in test [13] and in test [14] was “no” throughout. Besides, the binding result in [15] is “no”; in [16] it was “no”; in test [17], “yes”; in test [18], “no”; in test [19], “yes”; in test [20], “yes”. The binding result in [21] is “yes”.
As to `NC(=O)c1ccc[n+]([C@@H]2O[C@H](COP(=O)([O-])O)[C@@H](O)[C@H]2O)c1`, the binding result in test [1] (50 mM HEPES pH 7.0, 25 °C, 2 mM ligand stock titrated into 0.1 mM RNA) is given as “no”.
For the compound `Nc1ncnc2c1ncn2[C@@H]1O[C@H](COP(=O)(O)OP(=O)(O)OP(=O)(O)O)[C@@H](O)[C@H]1O`, in [1], the Kd was 90.2 ± 8.6 µM.
Regarding `NC(=O)C1=CN([C@@H]2O[C@H](COP(=O)(O)OP(=O)(O)OC[C@H]3O[C@@H](n4cnc5c(N)ncnc54)[C@H](O)[C@@H]3O)[C@@H](O)[C@H]2O)C=CC1`, the Kd in test [1] turned out to be 305 ± 46.4 µM.
For the compound `Nc1ncnc2c1ncn2[C@@H]1O[C@H](COP(=O)(O)OP(=O)(O)O)[C@@H](O)[C@H]1O`, in [1], the Kd is 95.3 ± 0.3 µM. Moreover, the binding result in test [17] is reported as “yes”. Moreover, the “KD^ADP” value in [22] was 94 ± 3 µM; in test [23], 3400 ± 500 µM.
